Measurements as given in ChEMBL document CHEMBL1201862, “PubChem BioAssay data set” (2004).
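1) Cells in 96-well plates. 2) Compound, 48 h, 5 concentrations. 3) Linear interpolation between surrounding doses. 4) Unreached endpoint = highest concentration. At the GI50, growth is halved.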 Active and inactive are the calls of the source. No stated cut-off is given here; in the data, active = GI50 up to about 1.1 µM and inactive = higher.

Experiments:
Experiment in all cases: NCI-60 cell line screen, 48 h
RPMI-8226 = system: RPMI-8226
PC-3 = system: PC-3
RXF 393 = system: RXF 393
CCRF-CEM = system: CCRF-CEM
MDA-MB-231 = system: MDA-MB-231
Malme-3M = system: Malme-3M
SF-539 = system: SF-539
MDA-N = system: MDA-N
SN12C = system: SN12C
DU-145 = system: DU-145
LOX IMVI = system: LOX IMVI
NCI-H226 = system: NCI-H226
NCI-H522 = system: NCI-H522
KM12 = system: KM12
HCT-116 = system: HCT-116
SNB-19 = system: SNB-19
MDA-MB-435 = system: MDA-MB-435
SK-OV-3 = system: SK-OV-3
HCT-15 = system: HCT-15

SMILES | GI50 (RPMI-8226) | GI50 (PC-3) | GI50 (RXF 393) | GI50 (CCRF-CEM) | GI50 (MDA-MB-231) | GI50 (Malme-3M) | GI50 (SF-539) | GI50 (MDA-N) | GI50 (SN12C) | GI50 (DU-145) | GI50 (LOX IMVI) | GI50 (NCI-H226) | GI50 (NCI-H522) | GI50 (KM12) | GI50 (HCT-116) | GI50 (SNB-19) | GI50 (MDA-MB-435) | GI50 (SK-OV-3) | GI50 (HCT-15) [µM]
Cc1c(NC(=O)Nc2c(Cl)cccc2Cl)c(=O)n(-c2ccccc2)n1C | > 100 µM (inactive) | > 100 µM (inactive) | > 100 µM (inactive) | 46.7 µM (inactive) | > 100 µM (inactive) | > 100 µM (inactive) | > 100 µM (inactive) | > 100 µM (inactive) | > 100 µM (inactive) | > 100 µM (inactive) | > 100 µM (inactive) | > 100 µM (inactive) | > 100 µM (inactive) | > 100 µM (inactive) | > 100 µM (inactive) | > 100 µM (inactive) | > 100 µM (inactive) | > 100 µM (inactive) | > 100
O=C1NC(=O)C(c2c[nH]c3ccccc23)=C1c1cnc[nH]1 | 49 µM (inactive) | > 100 µM (inactive) | > 100 µM (inactive) | 47.3 µM (inactive) | > 100 µM (inactive) | > 100 µM (inactive) | 32.9 µM (inactive) | 74.3 µM (inactive) | > 100 µM (inactive) | > 100 µM (inactive) | 59 µM (inactive) | 1.79 µM (inactive) | 56.8 µM (inactive) | 45.2 µM (inactive) | 41.8 µM (inactive) | > 100 µM (inactive) | 75.3 µM (inactive) | > 100 µM (inactive) | > 100
O=C(CC(=O)Nc1ccccc1Cl)NNC(c1cc(/N=N/c2ccc(Br)cc2)ccc1O)P(O)O (stereo not given) | 2.84 µM (inactive) | 0.521 µM (active) | 1.34 µM (inactive) | 0.451 µM (active) | 3.06 µM (inactive) | 3.6 µM (inactive) | 0.951 µM (active) | 3.2 µM (inactive) | 1.6 µM (inactive) | 2.42 µM (inactive) | 1.07 µM (active) | 1.22 µM (inactive) | 2.97 µM (inactive) | 2.95 µM (inactive) | 0.311 µM (active) | 4.1 µM (inactive) | 2.04 µM (inactive) | 3.03 µM (inactive) | 0.594
COc1cc(I)c2c3c1OC1C34CCN(C)C(C2)C4=CC(I)C1(OC)OC (stereo not given) | 19.6 µM (inactive) | 24.4 µM (inactive) | 16.3 µM (inactive) | 5.36 µM (inactive) | 20.1 µM (inactive) | 20.7 µM (inactive) | 18.1 µM (inactive) | 19.9 µM (inactive) | 16.3 µM (inactive) | 18.7 µM (inactive) | 19.6 µM (inactive) | 22.6 µM (inactive) | 21.2 µM (inactive) | 17.5 µM (inactive) | 23.4 µM (inactive) | 27.4 µM (inactive) | 13.2 µM (inactive) | 24.8 µM (inactive) | 25.5
Cc1ccc(C2=NOC(=O)[C@@H]3CCCC[C@@H]23)cc1 | > 100 µM (inactive) | > 100 µM (inactive) | > 100 µM (inactive) | > 100 µM (inactive) | 75.3 µM (inactive) | > 100 µM (inactive) | > 100 µM (inactive) | > 100 µM (inactive) | > 100 µM (inactive) | 27.2 µM (inactive) | > 100 µM (inactive) | > 100 µM (inactive) | > 100 µM (inactive) | > 100 µM (inactive) | > 100 µM (inactive) | > 100 µM (inactive) | > 100 µM (inactive) | > 100 µM (inactive) | > 100
COc1ccc2c(-c3ccc(O)cc3)c(Oc3ccc(Cl)cc3)c(=O)oc2c1 | 3.99 µM (inactive) | 7.69 µM (inactive) | 8.34 µM (inactive) | 6.28 µM (inactive) | 5.13 µM (inactive) | 4.76 µM (inactive) | 8.26 µM (inactive) | 6.34 µM (inactive) | 4.6 µM (inactive) | 4.2 µM (inactive) | 11.1 µM (inactive) | > 20.6 µM (inactive) | 2.55 µM (inactive) | 5.75 µM (inactive) | 6.46 µM (inactive) | 3.89 µM (inactive) | 7.43 µM (inactive) | 12 µM (inactive) | 4.66
COC(=O)Nc1nc2cc(S(=O)(=O)NC(CC(C)C)C(=O)OC)ccc2[nH]1 (stereo not given) | 3.28 µM (inactive) | 2.37 µM (inactive) | 3.21 µM (inactive) | 3.52 µM (inactive) | 6.32 µM (inactive) | 3.08 µM (inactive) | 4.48 µM (inactive) | 0.414 µM (active) | 7.89 µM (inactive) | 2.43 µM (inactive) | 3.63 µM (inactive) | 10.8 µM (inactive) | 0.197 µM (active) | 2.19 µM (inactive) | 2.32 µM (inactive) | 2.45 µM (inactive) | 0.396 µM (active) | 4.53 µM (inactive) | 2.81
OC(C/C=N/N=C/CC(O)(C(F)(F)Cl)C(F)(F)Cl)(C(F)(F)Cl)C(F)(F)Cl | > 10 µM (inactive) | > 10 µM (inactive) | > 10 µM (inactive) | > 10 µM (inactive) | > 10 µM (inactive) | > 10 µM (inactive) | > 10 µM (inactive) | > 10 µM (inactive) | > 10 µM (inactive) | > 10 µM (inactive) | > 10 µM (inactive) | > 10 µM (inactive) | > 10 µM (inactive) | > 10 µM (inactive) | > 10 µM (inactive) | > 10 µM (inactive) | > 10 µM (inactive) | > 10 µM (inactive) | > 10
O=C1C(=O)N(C23CC4CC(CC(C4)C2)C3)C(=S)N1c1ccccc1 | > 100 µM (inactive) | > 100 µM (inactive) | > 100 µM (inactive) | 29 µM (inactive) | > 100 µM (inactive) | > 100 µM (inactive) | > 100 µM (inactive) | > 100 µM (inactive) | > 100 µM (inactive) | > 100 µM (inactive) | > 100 µM (inactive) | 60 µM (inactive) | 17.1 µM (inactive) | > 100 µM (inactive) | 93.5 µM (inactive) | > 100 µM (inactive) | > 100 µM (inactive) | > 100 µM (inactive) | > 100
C=C1c2nc3ccccc3n2C=C(c2ccc(OC)cc2)N1c1ccc(OC)cc1 | 29.4 µM (inactive) | 19 µM (inactive) | 9.98 µM (inactive) | > 100 µM (inactive) | 20 µM (inactive) | 11 µM (inactive) | 7.16 µM (inactive) | 22.1 µM (inactive) | 17.8 µM (inactive) | 26.9 µM (inactive) | 46.6 µM (inactive) | 18.7 µM (inactive) | 10.7 µM (inactive) | 14.6 µM (inactive) | 17.4 µM (inactive) | 4.25 µM (inactive) | 12.1 µM (inactive) | 16.1 µM (inactive) | 25.5
O=C(O)c1ccccc1CC1Cc2ccc3c(c2C1=O)CCC3 (stereo not given) | > 100 µM (inactive) | > 100 µM (inactive) | > 100 µM (inactive) | > 100 µM (inactive) | > 100 µM (inactive) | > 100 µM (inactive) | > 100 µM (inactive) | > 100 µM (inactive) | > 100 µM (inactive) | > 100 µM (inactive) | > 100 µM (inactive) | > 100 µM (inactive) | > 100 µM (inactive) | > 100 µM (inactive) | > 100 µM (inactive) | > 100 µM (inactive) | > 100 µM (inactive) | > 100 µM (inactive) | > 100
CC(=O)OC1CC2C(=O)CC1(C)C2(C)C (stereo not given) | > 100 µM (inactive) | > 100 µM (inactive) | > 100 µM (inactive) | > 100 µM (inactive) | > 100 µM (inactive) | > 100 µM (inactive) | > 100 µM (inactive) | > 100 µM (inactive) | > 100 µM (inactive) | > 100 µM (inactive) | > 100 µM (inactive) | > 100 µM (inactive) | > 100 µM (inactive) | > 100 µM (inactive) | > 100 µM (inactive) | > 100 µM (inactive) | > 100 µM (inactive) | > 100 µM (inactive) | > 100
CC(=O)OC1/C(=C/c2ccc([N+](=O)[O-])cc2)C[C@H]2[C@@H]3CC=C4C[C@@H](OC(C)=O)CC[C@]4(C)[C@H]3CC[C@]12C (stereo not given in full) | > 71.3 µM (inactive) | > 100 µM (inactive) | 20 µM (inactive) | > 40.6 µM (inactive) | 58.3 µM (inactive) | > 100 µM (inactive) | 59.6 µM (inactive) | > 100 µM (inactive) | > 100 µM (inactive) | > 100 µM (inactive) | > 100 µM (inactive) | 4.63 µM (inactive) | > 91.8 µM (inactive) | > 100 µM (inactive) | > 100 µM (inactive) | > 72.4 µM (inactive) | > 100 µM (inactive) | 41.4 µM (inactive) | > 100
COc1cc(-c2nc3cc(F)ccc3s2)ccc1O | 41.1 µM (inactive) | 49 µM (inactive) | > 100 µM (inactive) | 28.8 µM (inactive) | 34.2 µM (inactive) | 78.9 µM (inactive) | 49.4 µM (inactive) | 99.3 µM (inactive) | 85.1 µM (inactive) | 82.8 µM (inactive) | 39.1 µM (inactive) | 26.4 µM (inactive) | 19.5 µM (inactive) | 18.6 µM (inactive) | 62.7 µM (inactive) | 83.2 µM (inactive) | > 100 µM (inactive) | 35.2 µM (inactive) | 11.7
COc1ccc2cc(C(C)C(=O)N3CCOC3=O)ccc2c1 (stereo not given) | > 100 µM (inactive) | > 100 µM (inactive) | > 100 µM (inactive) | > 100 µM (inactive) | > 100 µM (inactive) | > 100 µM (inactive) | > 100 µM (inactive) | > 100 µM (inactive) | > 100 µM (inactive) | > 100 µM (inactive) | > 100 µM (inactive) | > 100 µM (inactive) | > 100 µM (inactive) | > 100 µM (inactive) | > 100 µM (inactive) | > 100 µM (inactive) | > 100 µM (inactive) | > 100 µM (inactive) | > 100
